From patent US10836769B2, “Substituted pyrrolizine compounds and uses thereof” (Gilead Sciences, Inc., priority 2018, dated 2020)
Converted amounts (≈) assume the structure as drawn. Like-named read-outs stand apart in the source and are kept apart here.

How the values were obtained:
[1] = Kinetic Solubility; assay type: physicochemical; details: kinetic from dmso stock, 0.2 to 100 μM, BD Gentest Solubility Scanner
Description: The 10 mM DMSO stock solution of the test compound is serially diluted into a 96-well “DMSO stock dilution plate”. Then Pipette 2 μL from the DMSO stock dilution plate into the “Sample plate” and dilute with 198 µL of the assay media to generate the final concentrations of the test compound ranging from 0.2 to 100 μM. The “Sample plate” is run on a BD Gentest Solubility Scanner.

[2] = system: HBV; assay: HBV DNA Quantification Assay; assay type: cell-based; details: Hepatitis B virus
Description: A HepG2 cell line overexpressing the HBV virus attachment receptor sodium-taurocholate cotransporting polypeptide (NTCP) was grown to confluency in DMEM growth medium, Dulbecco's Modified Eagle Medium without sodium pyruvate (Life Technologies, Rockville, Md.) supplemented with 10% FBS (Thermo Scientific, Waltham, Md.), 1% penicillin/streptomycin (Life Technologies, Rockville, Md.) and 2 mM L-glutamine (Life Technologies, Rockville, Md.) in T175 flasks. Cells were infected with HBV AD38 viral particles (Texcell, Frederick, USA) at 4000 genome equivalents per cell. After allowing viral infection to take place for 4 days, the infected cells were harvested from the flasks by trypsinization, washed twice with OptiMEM (Life Technologies, Rockville, Md.) and re-suspended in DMEM containing 2% FBS and 1% DMSO at a density of 0.25E6 cells/ml. Infected cells were seeded on 384 well collagen coated plates (Greiner, Austria) at a density of 20,000 cells/well containing serially diluted compounds of the present disclosure or DMSO (0.5%) in a final volume of 80 μl. The assay plates were incubated for a period of 5 days and the antiviral activity of the test compounds were assayed by detecting the presence of HBV DNA in the culture supernatant using the QuantiGene™ 2.0 nucleic acid quantification kit (Affymetrix, Santa Clara, Calif.).
The culture supernatant was harvested and treated with lysis buffer containing Proteinase K (Affymetrix, Santa Clara, Calif.). The supernatant was incubated with HBV viral DNA specific probes (Affymetrix, Santa Clara, Calif.) for 30 minutes at 55° C. This was followed by addition of 0.2M NaOH for 30 minutes at room temperature to denature the DNA, followed by addition of Neutralization buffer (Affymetrix, Santa Clara, Calif.). The resulting lysed and neutralized supernatant was then added to QuantiGene™ 2.0 384 well plates coated with capture oligonucleotides and incubated overnight at 55° C. The HBV specific probe set consists of Capture Extender oligonucleotides (CE's) and blocking probes. Following the overnight incubation, the wells were incubated for one hour sequentially with a Pre-Amplifier, Amplifier and Labeled probes conjugated to alkaline phosphatase with a wash step between incubations. After the final wash step, the alkaline phosphatase substrate (Luminol APS5) was added and the resulting luminescence signal was read in an EnVision Multilabel Plate Reader (PerkinElmer, Santa Clara, Calif.). The EC50 values were calculated from the fit of the dose-response curves to a four-parameter equation. All EC50 values represent geometric mean values of a minimum of four determinations.

[3] = aqueous buffer, pH = 7, read-out: Kinetic Solubility at pH = 7
[4] = simulated gastric fluid, pH = 1, read-out: Kinetic Solubility at pH = 1
[5] = 120 h, HepG2 cell line overexpressing NTCP infected with HBV AD38 viral particles, HBV DNA in culture supernatant after 5 days, geometric mean of a minimum of four determinations, read-out: EC50
[6] = assay media at pH 1 (composition not named), simulated gastric fluid, pH = 1, read-out: Kinetic Solubility at pH = 1
[7] = assay media at pH 7 (composition not named), aqueous buffer, pH = 7, read-out: Kinetic Solubility at pH = 7

Cc1c(C(=O)Nc2ccc(F)c(F)c2)c2n(c1C(=O)C(=O)NC1(c3nncs3)CC(F)(F)C1)CCC2 [Example 3, 5-(2-((3,3-difluoro-1-(1,3,4-thiadiazol-2-yl)cyclobutyl)amino)-2-oxoacetyl)-N-(3,4-difluorophenyl)-6-methyl-2,3-dihydro-1H-pyrrolizine-7-carboxamide]
solubility kinetic [1, 3]: 1.1 µM (≈ 0.574 µg/mL) | solubility kinetic [1, 4]: 1.5 µM (≈ 0.782 µg/mL) | EC50 [2, 5]: 2.3 nM

Cc1c(C(=O)Nc2cc(F)c(F)c(F)c2)c2n(c1C(=O)C(=O)NC1(c3cnn[nH]3)CC(F)(F)C1)CCC2 [Example 18]
solubility kinetic [1, 3]: 52.7 µM (≈ 27.5 µg/mL) | solubility kinetic [1, 4]: 50 µM (≈ 26.1 µg/mL) | EC50 [2, 5]: 2.4 nM

CNC(=O)C1(NC(=O)C(=O)c2c(C)c(C(=O)Nc3ccc(F)c(F)c3)c3n2[C@@H]2C[C@@H]2C3)CC(F)(F)C1 [Example 33]
solubility kinetic [1, 3]: 92.3 µM (≈ 46.7 µg/mL) | solubility kinetic [1, 4]: 92.1 µM (≈ 46.6 µg/mL) | EC50 [2, 5]: 93.6 nM

Cc1c(C(=O)Nc2ccc(F)c(F)c2)c2n(c1C(=O)C(=O)NC1(c3nncs3)CC1)CCC2 [Example 43, 5-(2-((1-(1,3,4-thiadiazol-2-yl)cyclopropyl)amino)-2-oxoacetyl)-N-(3,4-difluorophenyl)-6-methyl-2,3-dihydro-1H-pyrrolizine-7-carboxamide]
solubility kinetic [1, 3]: 72.8 µM (≈ 34.3 µg/mL) | solubility kinetic [1, 4]: 77.7 µM (≈ 36.6 µg/mL) | EC50 [2, 5]: 12.8 nM

Cc1c(C(=O)Nc2ccc(F)cc2)c2n(c1C(=O)C(=O)NC1(c3nncs3)CC(F)(F)C1)CCC2 [Example 8]
solubility kinetic [1, 3]: 3.9 µM (≈ 1.96 µg/mL) | solubility kinetic [1, 4]: 10.5 µM (≈ 5.29 µg/mL) | EC50 [2, 5]: 4.7 nM

Cc1c(C(=O)Nc2ccc(F)c(C#N)c2)c2n(c1C(=O)C(=O)NC1(c3cnn[nH]3)CC(F)(F)C1)CCC2 [Example 15, N-(3-cyano-4-fluorophenyl)-5-(2-((3,3-difluoro-1-(1H-1,2,3-triazol-4-yl)cyclobutyl)amino)-2-oxoacetyl)-6-methyl-2,3-dihydro-1H-pyrrolizine-7-carboxamide]
solubility kinetic [1, 3]: 13.9 µM (≈ 7.11 µg/mL) | solubility kinetic [1, 4]: 13.5 µM (≈ 6.9 µg/mL) | EC50 [2, 5]: 5.2 nM

Cc1c(C(=O)Nc2ccc(F)c(C(F)F)c2)c2n(c1C(=O)C(=O)NC1(c3nncs3)CC1)CCC2 [Example 31]
solubility kinetic [1, 3]: 6.3 µM (≈ 3.17 µg/mL) | solubility kinetic [1, 4]: 23.1 µM (≈ 11.6 µg/mL) | EC50 [2, 5]: 16.5 nM

Cc1c(C(=O)Nc2ccc(F)c(F)c2)c2n(c1C(=O)C(=O)NC1(c3cnn[nH]3)CC(F)(F)C1)[C@@H]1C[C@@H]1C2 [Example 34, (1aR,6aR)-3-(2-((3,3-difluoro-1-(1H-1,2,3-triazol-5-yl)cyclobutyl)amino)-2-oxoacetyl)-N-(3,4-difluorophenyl)-4-methyl-1,1a,6,6a-tetrahydrocyclopropa[a]pyrrolizine-5-carboxamide]
solubility kinetic [1, 6]: 51.7 µM (≈ 26.7 µg/mL) | solubility kinetic [1, 7]: 52.3 µM (≈ 27 µg/mL) | EC50 [2, 5]: 14.4 nM

Cc1c(C(=O)Nc2ccc(F)c(F)c2)c2n(c1C(=O)C(=O)NC1(c3c[nH]nn3)CC(F)(F)C1)CCC2 [Example 39]
solubility kinetic [1, 3]: 66.8 µM (≈ 33.7 µg/mL) | solubility kinetic [1, 4]: 66 µM (≈ 33.3 µg/mL) | EC50 [2, 5]: 2.9 nM

CNC(=O)C1(NC(=O)C(=O)c2c(C)c(C(=O)Nc3ccc(F)cc3)c3n2CCC3)CC(F)(F)C1 [Example 45, 5-(2-((3,3-difluoro-1-(methylcarbamoyl)cyclobutyl)amino)-2-oxoacetyl)-N-(4-fluorophenyl)-6-methyl-2,3-dihydro-1H-pyrrolizine-7-carboxamide]
solubility kinetic [1, 3]: 95.3 µM (≈ 45.4 µg/mL) | solubility kinetic [1, 4]: 99.9 µM (≈ 47.6 µg/mL) | EC50 [2, 5]: 55.9 nM

CNC(=O)C1(NC(=O)C(=O)c2c(C)c(C(=O)Nc3ccc(F)c(F)c3)c3n2CCC3)CC(F)(F)C1 [Example 46]
solubility kinetic [1, 3]: 88.5 µM (≈ 43.8 µg/mL) | solubility kinetic [1, 4]: 84.4 µM (≈ 41.7 µg/mL) | EC50 [2, 5]: 22.5 nM

Cc1c(C(=O)Nc2ccc(F)c(F)c2)c2n(c1C(=O)C(=O)NC1(c3c[nH]nn3)COC1)CCC2 [Example 36, 5-(2-((3-(1H-1,2,3-triazol-4-v)oxetan-3-yl)amino)-2-oxoacetyl)-N-(3,4-difluorophenyl)-6-methyl-2,3-dihydro-1H-pyrrolizine-7-carboxamide]
solubility kinetic [1, 6]: 63 µM (≈ 29.6 µg/mL) | solubility kinetic [1, 7]: 59.9 µM (≈ 28.2 µg/mL) | EC50 ([2]; HepG2, 120 h): 21.4 nM

Cc1c(C(=O)Nc2ccc(F)c(F)c2)c2n(c1C(=O)C(=O)NC1(c3cn(C)nn3)CC1)CCC2 [Example 11]
solubility kinetic [1, 6]: 48.9 µM (≈ 22.9 µg/mL) | solubility kinetic [1, 7]: 56.3 µM (≈ 26.4 µg/mL) | EC50 ([2]; HepG2, 120 h): 71.2 nM

Cc1c(C(=O)Nc2ccc(F)cc2)c2n(c1C(=O)C(=O)NC1(c3cnn[nH]3)CC(F)(F)C1)C[C@H]1C[C@@H]21 [Example 14, (1aS,6bR)-4-(2-((3,3-difluoro-1-(1H-1,2,3-triazol-4-yl)cyclobutyl)amino)-2-oxoacetyl)-N-(4-fluorophenyl)-5-methyl-1,1a,2,6b-tetrahydrocyclopropa[a]pyrrolizine-6-carboxamide]
solubility kinetic [1, 3]: 61.4 µM (≈ 30.6 µg/mL) | solubility kinetic [1, 4]: 57.1 µM (≈ 28.5 µg/mL) | EC50 [2, 5]: 2.6 nM

Cc1c(C(=O)Nc2ccc(F)c(C(F)F)c2)c2n(c1C(=O)C(=O)NC1(c3c[nH]nn3)CC(F)(F)C1)CCC2 [Example 37, 5-(2-((3,3-Difluoro-1-(1H-1,2,3-triazol-4-yl)cyclobutyl)amino)-2-oxoacetyl)-N-(3-(difluoromethyl)-4-fluorophenyl)-6-methyl-2,3-dihydro-1H-pyrrolizine-7-carboxamide]
solubility kinetic [1, 3]: 5.2 µM (≈ 2.79 µg/mL) | solubility kinetic [1, 4]: 7.1 µM (≈ 3.81 µg/mL) | EC50 [2, 5]: 3.6 nM
